Measured values reported in ChEMBL document CHEMBL1201862, “PubChem BioAssay data set” (2004).
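Cultured in 96-well plates, cells were exposed to test compound for 48 hours across five concentrations. At the GI50, growth is halved.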 Activity calls are given as the source filed them. Rule as the data show it: active = GI50 up to about 1.1 µM and inactive = higher.

What was measured:
Experiment in all cases: NCI tumour cell line growth inhibition, 48 h
DMS-273 = test system: DMS-273
M19-MEL = test system: M19-MEL
SNB-78 = test system: SNB-78
DLD-1 = test system: DLD-1
HOP-18 = test system: HOP-18
DMS-114 = test system: DMS-114
KM-20L2 = test system: KM-20L2
XF498 = test system: XF498
RXF 631 = test system: RXF 631

| SMILES | GI50 (DMS-273) | GI50 (M19-MEL) | GI50 (SNB-78) | GI50 (DLD-1) | GI50 (HOP-18) | GI50 (DMS-114) | GI50 (KM-20L2) | GI50 (XF498) | GI50 (RXF 631) |
| --- | --- | --- | --- | --- | --- | --- | --- | --- | --- |
| CCN(CC)CC[n+]1ccc2c(C)c3[nH]c4ccc(O)cc4c3c(C)c2c1 | 2.92 µM (inactive) | 1.21 µM (inactive) | 3.5 µM (inactive) | 11.6 µM (inactive) | 4.23 µM (inactive) | 0.767 µM (active) | 8.47 µM (inactive) |  |  |
| N#CC(/C(CCC(=O)Nc1ccc(Cl)cc1)=N/NC(=O)c1cc2ccccc2cc1O)c1ccccc1 (configuration not stated) |  | 33.7 µM (inactive) | 66.1 µM (inactive) | 33.7 µM (inactive) | 21.5 µM (inactive) | 25.4 µM (inactive) | 28.6 µM (inactive) | 54.8 µM (inactive) |  |
| COc1ccc(NC(=O)CC/C(CC(=O)c2ccco2)=N/NC(N)=S)cc1 | > 100 µM (inactive) | > 100 µM (inactive) | > 100 µM (inactive) | > 100 µM (inactive) | > 100 µM (inactive) | > 100 µM (inactive) | > 100 µM (inactive) | > 100 µM (inactive) | > 100 µM (inactive) |
| COc1ccc2nc3ccccc3c(NCCCCCCN(C)CCCl)c2c1 | 0.0488 µM (active) | 0.308 µM (active) | 0.33 µM (active) | 0.164 µM (active) |  | 0.166 µM (active) | 0.172 µM (active) | 0.2 µM (active) |  |
| COc1ccc2c(c1)Oc1cc(O)ccc1[C@H]2c1ccccc1C(=O)NC(C)c1ccccc1 (some centres not stated) | 14.5 µM (inactive) | 15.7 µM (inactive) | 16.6 µM (inactive) | 18.2 µM (inactive) |  | 11.5 µM (inactive) | 19.1 µM (inactive) |  |  |
| CCOc1ccc(/C(C=O)=C(\Cl)c2ccc(OC)cc2)cc1 | > 100 µM (inactive) | > 100 µM (inactive) | > 100 µM (inactive) | > 100 µM (inactive) | 42.3 µM (inactive) | 40.5 µM (inactive) | > 100 µM (inactive) | > 100 µM (inactive) |  |
| CCCCNCC(=O)O[C@]1(CC)C(=O)OCc2c1cc1n(c2=O)Cc2cc3ccccc3nc2-1 | < 0.01 µM (active) | 0.63 µM (active) | 2.43 µM (inactive) | 3.3 µM (inactive) | 0.44 µM (active) | 0.121 µM (active) | 1.24 µM (inactive) | 0.305 µM (active) | 1.7 µM (inactive) |
| COC(=O)C1=NC(=S)NC(c2ccccc2)C1c1nc2ccccc2s1 (configuration not stated) | > 100 µM (inactive) | > 100 µM (inactive) | > 100 µM (inactive) | > 100 µM (inactive) | > 100 µM (inactive) | > 100 µM (inactive) | > 100 µM (inactive) |  | > 100 µM (inactive) |
| CCCC(=O)N[C@H]1C2C3CC4C5CC(C42)C1(C)C53 (some centres not stated) | > 100 µM (inactive) | > 100 µM (inactive) | > 100 µM (inactive) | > 100 µM (inactive) | > 100 µM (inactive) |  | > 100 µM (inactive) |  |  |
| O=C1NC(Cc2ccc(O)cc2)C(=O)N2CCCC12 (configuration not stated) | > 100 µM (inactive) | > 100 µM (inactive) | > 100 µM (inactive) | > 100 µM (inactive) | > 100 µM (inactive) | > 100 µM (inactive) | > 100 µM (inactive) |  | > 100 µM (inactive) |
| CCOC(=O)C(C)NC(=O)NC12CC3CC(CC(F)(C3)C1)C2 (configuration not stated) | > 100 µM (inactive) | 61.1 µM (inactive) | 27.9 µM (inactive) | > 100 µM (inactive) |  | > 100 µM (inactive) | > 100 µM (inactive) | 27.4 µM (inactive) |  |
| O=C(/C=C/c1ccco1)c1ccc(NCc2nc3ccccc3[nH]2)cc1 | 17.5 µM (inactive) | 14.9 µM (inactive) | 21.3 µM (inactive) | 15 µM (inactive) | 20.9 µM (inactive) | 12 µM (inactive) | 18.7 µM (inactive) |  |  |
| N#CC(C#N)=C1NC(=O)C(c2ccccc2)C(=O)N1 (configuration not stated) | > 100 µM (inactive) | > 100 µM (inactive) | > 100 µM (inactive) | > 100 µM (inactive) |  | > 100 µM (inactive) | > 100 µM (inactive) | > 100 µM (inactive) | > 100 µM (inactive) |
| O=C(NCCCCCCNC(=O)OCCSCCn1cc(C(=O)NC(=O)OCc2ccccc2)c(=O)[nH]c1=O)OCCSCCn1cc(C(=O)NC(=O)OCc2ccccc2)c(=O)[nH]c1=O | > 100 µM (inactive) | > 100 µM (inactive) | > 100 µM (inactive) | > 100 µM (inactive) |  | > 100 µM (inactive) | > 100 µM (inactive) | > 100 µM (inactive) | > 100 µM (inactive) |
| O=c1[nH]c(=O)n([C@H]2C[C@@H](CO)[C@@H](O)C2)cc1I | > 100 µM (inactive) | > 100 µM (inactive) | > 100 µM (inactive) | > 100 µM (inactive) | > 100 µM (inactive) | > 100 µM (inactive) | > 100 µM (inactive) |  |  |
| O=C(O)CCC(=O)Oc1ccc(O)c2c1CCCC2=O | > 100 µM (inactive) | > 100 µM (inactive) | > 100 µM (inactive) | > 100 µM (inactive) | > 100 µM (inactive) | > 100 µM (inactive) | > 100 µM (inactive) | 0.316 µM (active) |  |
| Cn1ccnc1CCc1ccc(Cl)cc1Cl | > 100 µM (inactive) | > 100 µM (inactive) | > 100 µM (inactive) | > 100 µM (inactive) | > 100 µM (inactive) | 56.8 µM (inactive) | > 100 µM (inactive) |  | > 100 µM (inactive) |
| CC[C@@H]1OC2(C)CC(S(=O)(=O)c3ccccc3O)CC1O2 (some centres not stated) | > 100 µM (inactive) | > 100 µM (inactive) |  | > 100 µM (inactive) | > 100 µM (inactive) |  | > 100 µM (inactive) |  | > 100 µM (inactive) |
| C[C@H]1CC[P+](Cc2ccccc2)(c2ccccc2)C1 (some centres not stated) | > 100 µM (inactive) | 26.8 µM (inactive) |  | > 100 µM (inactive) | > 100 µM (inactive) | 23 µM (inactive) | 93.5 µM (inactive) | < 0.01 µM (active) |  |
| Cc1ccc(-n2nc(C(OC3OC(CO)C(O)C(O)C3O)C(O)CO)c3nc4cc(C)c(C)cc4nc32)cc1 (configuration not stated) |  | > 100 µM (inactive) | > 100 µM (inactive) | > 100 µM (inactive) |  | > 100 µM (inactive) | > 100 µM (inactive) | > 100 µM (inactive) | > 100 µM (inactive) |
| CC1(C)OCC([C@H]2CC23SCCCS3)O1 (some centres not stated) | > 100 µM (inactive) |  | > 100 µM (inactive) | > 100 µM (inactive) | > 100 µM (inactive) | > 100 µM (inactive) | > 100 µM (inactive) | > 100 µM (inactive) |  |
| COc1ccc2nc(-c3ccc(O)cc3)ccc2c1 |  | > 100 µM (inactive) | 97.1 µM (inactive) | > 100 µM (inactive) | > 100 µM (inactive) | > 100 µM (inactive) | > 100 µM (inactive) |  |  |
| Cc1cccc(NC(=O)/C(=N\N)C(c2cnc3ccc([N+](=O)[O-])cc3n2)[N+](=O)[O-])c1C (configuration not stated) | > 100 µM (inactive) | > 100 µM (inactive) |  | > 100 µM (inactive) | > 100 µM (inactive) | 51.3 µM (inactive) | 71.8 µM (inactive) | > 100 µM (inactive) | > 100 µM (inactive) |
| CC(=O)O[C@H]1[C@@H]2[C@@H]3[C@@H](C[C@H]1C)[C@@H](C)CO[C@@]1(C)CC/C=C(/C)C[C@@H]2O[C@@H]31 | > 100 µM (inactive) | > 100 µM (inactive) |  | > 100 µM (inactive) | > 100 µM (inactive) | > 100 µM (inactive) | > 100 µM (inactive) | > 100 µM (inactive) | > 100 µM (inactive) |
| C[C@]12CCC(=O)C=C1CC[C@@H]1[C@@H]2C(=O)C[C@@]2(C)[C@H]1CC[C@]2(O)C(=O)CO [CORTISONE] | > 100 µM (inactive) | > 100 µM (inactive) |  | > 100 µM (inactive) | > 100 µM (inactive) | > 100 µM (inactive) | > 100 µM (inactive) | > 100 µM (inactive) |  |
| CCOC(=O)Nc1ccc2c(c1)N(C(=O)CCN(CC)CC)c1ccccc1S2 [ETHACIZINE] | 27 µM (inactive) | 32.1 µM (inactive) | 5.18 µM (inactive) | 29.1 µM (inactive) | 42 µM (inactive) | 18.2 µM (inactive) | 19.3 µM (inactive) | 18.1 µM (inactive) |  |
